Measured values published in patent publication US20180179166A1, “SMALL MOLECULE INHIBITORS OF GP120-MEDIATED HIV INFECTION AND METHODS OF USE” (ViroCarb Inc., priority 2014, published 2018).
Like-named read-outs stand apart in the source and are kept apart here.

Key:
[1] = tested on: HIV-1IIIB virus (X4 tropism); test: Protocol 1: inhibition of HIV-1 in Jurkat T-cells, p24gag ELISA; assay type: cell-based; details: read-out: percent inhibitory activity
Procedure: HIV-1IIIB virus (X4 tropism) was pretreated with a control solution of DMSO or a given compound dissolved in DMSO to a final concentration of 100 μM for 1 hr at 37° C. Pretreated HIV-1 virus was then added (100 μl of 0.1 MOI) to 0.5×10^6 Jurkat (JKT C) T-cells in 100 μl RPMI media and incubated at 37° C. for an additional 1 hr with occasional mixing.
After 1 hour, the cells were centrifuged at 1000 rpm for 5 minutes and the cell pellet washed wash thrice with 2 ml Ca^2+ Mg^2+ free PBS. After the last wash, the cells were resuspended in medium and transferred to 12-well tissue culture plates and placed at 37° C.
On days 2 and 5 of culture, 0.5 ml aliquots of culture supernatant is collected and replaced with 0.5 ml of fresh medium. Aliquots are stored at −80° C. until ready for p24gag ELISA. ELISA for p24gag was done using ELISA plates from Zeptometrix using a standard protocol.

[2] = tested on: JR-FL-R5 virus; test: Example 6: U87.CD4.CCR5 cells infected with replication-deficient luciferase HIV strain; assay type: cell-based; details: Human immunodeficiency virus 1, U87/CD4/CCR5, 48 h, read-out: % HIV inhibitory activity
Procedure: Methods. U87.CD4.CCR5 cells (2.5×10^4/well) were seeded overnight and then infected with a replication-deficient HIV strain containing a luciferase insertion in the nef gene (JR-FL-R5 virus). JR-FL-R5 virus was pre-incubated with each compound for 1 hour prior to infection. After two days, the cells were washed, lysed and measured for luciferase activity, which is indicative of viral integration and/or transcription. Compounds were tested in quadruplicates.

[3] = tested on: HIV-BaL virus (R5 tropism); test: Protocol 3: inhibition of HIV-1 in TZM-bl reporter cells, luciferase, R5 virus; assay type: cell-based; details: Human immunodeficiency virus 1, BAL, read-out: percent inhibitory activity against R5; for inhibition at 200 µM: 200 μM compound
Procedure: (§1) HIV-BaL virus (R5 tropism) and HIV-1 IIIb virus (X4 tropism) were pretreated with a given compound dissolved in DMSO to a final concentration of 100-200 μM for 1 hr at 37° C. in 96 well tissue culture plates. The TZM-bl HIV reporter cell line (1×10^4/well) in 100 ul DMEM is then added to each well and the 96 well tissue culture plates are incubated at 37° C. in 5% CO2 incubator.
(§2) TZM-bl cells were obtained from the NIH AIDS Reagent Program (Germantown Md., USA). TZM-bl, previously designated JC53-bl (clone 13) is a HeLa cell line. The parental cell line (JC.53) stably expresses large amounts of CD4 and CCR5. The TZM-bl cell line was generated from JC.53 cells by introducing separate integrated copies of the luciferase and ß-galactosidase genes under control of the HIV-1 promoter. The TZM-bl cell line is highly sensitive to infection with diverse isolates of HIV-1. The TZM-bl indicator cell line enables simple and quantitative analysis of HIV using either ß-gal or luciferase as a reporter. It is maximally sensitive to HIV infection by including DEAE-dextran in the infection medium. […] Further information about TZM-bl cells can be found in U.S. Pat. No. 6,797,462, issued to Tranzyme Pharma.
(§3) After 48 hours, half of the medium was removed and replaced with commercially available reagents that contain lysing buffer and substrate for luciferase. After 2 minutes of lysis and incubation, the luciferase activity of the TZM-bl cell is read using a commercial luminometer. The readout is translated as relative light units (RLU).

[4] = tested on: HIV-1 IIIb virus (X4 tropism); test: Protocol 3: inhibition of HIV-1 in TZM-bl reporter cells, luciferase, X4 virus; assay type: cell-based; details: Human immunodeficiency virus 1, IIIB, read-out: percent inhibitory activity against X4; for inhibition at 200 µM: 200 μM compound
Procedure: as §1, §2, §3

[5] = tested on: HIV-BaL virus (R5 tropism); test: Protocol 4: inhibition of HIV-1 in U87.CD4.CCR5 cells, p24gag ELISA; assay type: cell-based; details: Human immunodeficiency virus 1, 96 h, day 4 post-infection, read-out: percent inhibitory activity; for inhibition at 20 µM: 20 μM compound
Procedure: U87.CD4.CCR5 cell lines (5×10^4/well) were seeded in 24 well plates overnight. HIV-BaL virus (R5 tropism) was pretreated with a control solution of DMSO or a given compound dissolved in DMSO to a final concentration of 20-200 μM for 1 hr at 37° C.
Pretreated HIV-1 virus was then added (100 μl of 0.1 MOI) to pre-plated U87.CD4.CCR5 cells in 200 μl DMEM media and then incubated at 37° C. for an additional 1 hour with occasional mixing.
After 1 hour, the cells in each well were washed with 1 ml Ca^2+ Mg^2+ free PBS three times. After the last wash, 1 ml of DMEM was added to each well. On day 4 post-infection, 0.2 ml aliquots of culture supernatant was collected. Aliquots were stored at −80° C. until ready for p24gag ELISA. ELISA for p24gag was done using ELISA plates from Zeptometrix using a standard protocol.

[6] = tested on: HIV-1IIIB virus (X4 tropism); test: Protocol 1: inhibition of HIV-1 in Jurkat T-cells, p24gag ELISA; assay type: cell-based; details: Human immunodeficiency virus 1, 20 μM compound, HIV-1IIIB (X4), read-out: percent inhibitory activity
[7] = tested on: HIV-1 BaL virus (R5 tropism); test: Protocol 2: inhibition of HIV-1 in PBMC, virus pre-treated with compound, p24gag ELISA; assay type: cell-based; details: Human immunodeficiency virus 1, 144 h, 100 μM compound, HIV-1 BaL (R5), day 6, read-out: percent inhibitory activity
Procedure: The protocol involves PBMCs which were purified by centrifugation at 500 g using Ficoll-Paque™ reagent. The cells were re-suspended in RPMI (10% FBS, 2 ug/ml PHA, 20 U/ml of IL-2) and incubated at 37° C. in 5% CO2 for 3 days.
HIV-1 BaL virus (R5 tropism) was pre-treated with a control solution of DMSO or a given compound dissolved in DMSO to a final concentration of 20-100 μM for 1 hour at 37° C. Pretreated HIV-1 viruses were then added (100 μl of 0.1 MOI) to 5×10^5 PBMCs in 100 μl RPMI media and then incubated at 37° C. for an additional 1 hour with occasional mixing. After 1 hour, the cells were centrifuged at 1000 rpm for 5 minutes and the cell pellet washed wash thrice with 2 ml Ca^2+ Mg^2+ free PBS.
After the last wash, the cells are re-suspended in medium and transferred to 12-well tissue culture plates and place at 37° C.
On day 6 of culture, 0.5 ml aliquots of culture supernatant were collected. Aliquots were stored at −80° C. until ready for p24gag ELISA. ELISA for p24gag was done using ELISA plates from Zeptometrix using a standard protocol.

[8] = tested on: HIV BaL; test: Example 5: HIV inhibition in human PBMC infected first, then treated with compound; assay type: cell-based, HIV-1; details: read-out: % HIV inhibitory activity
Procedure: In this Example, Compounds #32 and #38 were tested using human peripheral blood mononuclear cells (PBMC). The protocol used is the same as that of Example 2—Protocol 2, delineated in detail, above.
Methods. Briefly, 5×10^5 activated PBMCs were used per well in a 12-well tissue culture plate. The PBMCs were infected with HIV BaL for 1 hour and washed 2× with RPMI medium. The PBMCs were then mixed with compound #32 or #38 at concentrations of 6.0 μM, 25 μM or 100 μM, with solutions containing 20U/m1 of IL-2.
At day 3-post infection, 500 μl of fresh medium containing appropriate concentration of compounds were added. The supernatants were harvested at day 8. The level of HIV infection was determined as described in protocol 2.

[9] = Human immunodeficiency virus 1, Jurkat
[10] = 100 μM compound, TZM-bl cells, 48 hours
[11] = Human immunodeficiency virus 1, 100 μM compound, HIV-1IIIB (X4), Jurkat T-cells
[12] = Human immunodeficiency virus 1, BAL, PBMC, 192 h

## Nc1cc(=O)[nH]c(SCC(=O)Nc2ccc(F)c(Cl)c2)n1 [#25]
[1]; [9]
  inhibition at 100 µM: 18%

## O=C(CC1CCS(=O)(=O)C1)N/N=C/C=C/c1ccccc1 (centres unmarked) [#49]
[2]
  inhibition at 0.05 µM: 45%

## O=C(CSc1nnc(O)nc1O)N/N=C/c1cccnc1 [#40]
[3]; [10]
  inhibition at 100 µM: 71%
[4]; [10]
  inhibition at 100 µM: 57%

## Nc1cc(=O)[nH]c(SCCC(=O)NCc2ccc(C(=O)O)cc2)n1 [#36]
[5]
  inhibition at 20 µM: 7%
[6]
  inhibition at 20 µM: 50%

## O=C(CSc1nnc(O)nc1O)N/N=C/c1ccc(C(=O)O)cc1 [#3]
[1]; [11]
  inhibition at 100 µM: 71%
[7]
  inhibition at 100 µM: 34%

## CCOC(=O)c1cnc(SCC(=O)Nc2cccc(C(=O)O)c2)nc1N [#1]
[1]; [11]
  inhibition at 100 µM: 3%

## Nc1cc(=O)[nH]c(SCC(=O)Nc2ccc(C(=O)O)cn2)n1 [#28]
[5]
  inhibition at 20 µM: 27%

## Nc1cc(=O)[nH]c(SCCC(=O)Nc2ccc(C(=O)O)cc2)n1 [#34]
[3]; TZM-bl cells, 48 hours
  inhibition at 200 µM: 61%
[4]; TZM-bl cells, 48 hours
  inhibition at 200 µM: 62%
[5]
  inhibition at 20 µM: 33%

## Nc1cc(=O)[nH]c(SCC(=O)Nc2ccc(C(=O)O)cc2)n1 [#2]
[1]; [11]
  inhibition at 100 µM: 88%
[7]
  inhibition at 100 µM: 30%

## CCOC(=O)c1ccc(NC(=O)CSc2nc(N)cc(=O)[nH]2)nc1 [#29]
[5]
  inhibition at 20 µM: 24%
[6]
  inhibition at 20 µM: 75%

## O=C(CSc1nnc(O)nc1O)N/N=C/c1ccccn1 [#37]
[1]; [11]
  inhibition at 100 µM: 45%
[5]; 200 μM compound
  inhibition at 200 µM: 28%

## O=C(CSc1nnc(O)nc1O)N/N=C/c1ccc(C(=O)O)cn1 [#42]
[3]; [10]
  inhibition at 100 µM: 25%
[4]; [10]
  inhibition at 100 µM: 25%

## O=C(CSc1nnc(O)nc1O)N/N=C/c1ccc(Br)cc1 [#39]
[1]; [11]
  inhibition at 100 µM: 32%
[3]; [10]
  inhibition at 100 µM: 15%
[4]; [10]
  inhibition at 100 µM: 15%

## O=C(Cn1c(-c2ccccn2)nc2ccccc21)N/N=C/C=C/c1ccccc1 [#51]
[2]
  inhibition at 0.05 µM: 22%

## COC(=O)c1cnc(NC(=O)CSc2nc(N)cc(=O)[nH]2)cn1 [#31]
[5]
  inhibition at 20 µM: 21%

## O=C(Cc1nnc(O)nc1O)N/N=C/C=C/c1ccccc1 [#48]
[2]
  inhibition at 0.05 µM: 28%

## COC(=O)c1ccc(NC(=O)CCSc2nc(N)cc(=O)[nH]2)cc1 [#35]
[5]
  inhibition at 20 µM: 27%

## O=C(CSc1nnc(O)nc1O)N/N=C/c1ccc(-c2nccs2)cn1 [#47]
[3]; [10]
  inhibition at 100 µM: 27%
[4]; [10]
  inhibition at 100 µM: 29%

## CCOC(=O)c1ccc(/C=N/NC(=O)CSc2nnc(O)nc2O)nc1 [#43]
[3]; [10]
  inhibition at 100 µM: 12%
[4]; [10]
  inhibition at 100 µM: 16%

## O=C(CSc1nnc(O)nc1O)N/N=C/c1ccc(-c2nn[nH]n2)cn1 [#44]
[5]
  inhibition at 20 µM: 10%

## CCOC(=O)Cc1ccc(NC(=O)CSc2nc(N)cc(=O)[nH]2)cc1 [#33]
[5]
  inhibition at 20 µM: 27%

## Nc1cc(=O)[nH]c(SCC(=O)Nc2ccc3c(c2)OCO3)n1 [#21]
[7]
  inhibition at 100 µM: 40%

## Nc1cc(=O)[nH]c(SCC(=O)Nc2ccc(CC(=O)O)cc2)n1 [#32]
[3]; TZM-bl cells, 48 hours
  inhibition at 200 µM: 94%
[4]; TZM-bl cells, 48 hours
  inhibition at 200 µM: 61%
[8]; Human immunodeficiency virus 1, 192 h, 6.0 μM compound, human PBMC, HIV BaL, day 8
  inhibition at 6 µM: 54%
[8]; Human immunodeficiency virus 1, 192 h, 25 μM compound, human PBMC, HIV BaL, day 8
  inhibition at 25 µM: 65%
[8]; Human immunodeficiency virus 1, 192 h, 100 μM compound, human PBMC, HIV BaL, day 8
  inhibition at 100 µM: 82%
[2]
  inhibition at 2 µM: 32%
[6]
  inhibition at 20 µM: 80%

## Nc1cc(=O)[nH]c(SCC(=O)Nc2ccc([N+](=O)[O-])cc2)n1 [#27]
[1]; [9]
  inhibition at 100 µM: 20%

## Nc1cc(=O)[nH]c(SCC(=O)Nc2cnc(C(=O)O)cn2)n1 [#30]
[5]
  inhibition at 20 µM: 19%

## O=C(CSc1nnc(O)nc1O)N/N=C/C=C/c1ccccc1 [#38]
[1]; [9]
  inhibition at 100 µM: 44%
[3]; TZM-bl, 48 h
  inhibition at 100 µM: 73%
[4]; TZM-bl, 48 h
  inhibition at 100 µM: 69%
[8]; [12]
  inhibition at 6 µM: 70%
  inhibition at 25 µM: 90%
  inhibition at 100 µM: 100%
[2]
  inhibition at 2 µM: 30%

## O=C(CSc1nnc(O)nc1O)N/N=C/c1ccc(O)c([N+](=O)[O-])c1 [#41]
[3]; [10]
  inhibition at 100 µM: 14%
[4]; [10]
  inhibition at 100 µM: 10%
